Data as given in patent publication US20250332112A1, “IONIZABLE CATIONIC LIPIDS FOR LIPID NANOPARTICLES” (GENEVANT SCIENCES GMBH, priority 2022, published 2025).

What was measured:
[1] = Particle characteristics of LNPs containing luciferase mRNA and novel ionizable lipids; format: physicochemical; conditions: luciferase mRNA LNP 1.6:54.6:32.8:10.9
Procedure: The lipid solution contains 4 components: a PEG-conjugated lipid, an ionizable lipid, cholesterol, and a phospholipid (e.g., DSPC). Lipid stocks were prepared using the lipid identities and molar ratios as described, to achieve a total concentration of ˜7 mg/mL in 100% ethanol. Firefly luciferase mRNA (TriLink Biotechnologies, L-7202) or ornithine transcarbamylase (OTC) mRNA (TriLink Biotechnologies, custom designed) was diluted in acetate, pH 5 buffer and nuclease free water to achieve a target concentration of 0.366 mg/mL mRNA in 100 mM acetate, pH 5. Equal volumes of the lipid and nucleic acid solutions were blended at a flow rate of 400 mL/min through a T-connector, and diluted with ˜4 volumes of PBS, pH 7.4. Formulations were placed in Slide-A-Lyzer dialysis units (MWCO 10,000) and dialyzed overnight against 10 mM Tris, 500 mM NaCl, pH 8 buffer. Following dialysis, the formulations were concentrated to ˜0.6 mg/mL using VivaSpin concentrator units (MWCO 100,000) and dialyzed overnight against 5 mM Tris, 10% sucrose, pH 8 buffer. Formulations were filtered through a 0.2 μm syringe filter (PES membrane). Nucleic acid concentration was determined by the RiboGreen assay. Particle size and polydispersity were determined using a Malvern Nano Series Zetasizer.
LNP formulations containing novel ionizable lipids all produced stable particles with high encapsulation efficiency (Tables 1-7).

[2] = test system: luciferase activity in the liver; assay: Luciferase activity in liver after intravenous luciferase mRNA LNP; format: in vivo; conditions: 0.5 mg/kg IV, 6 h post-IV administration, BALB/c mice (n = 4)
Procedure: Frozen aliquots of liver were thawed and homogenized in 1 mL of 1×CCLR (Cell Culture Lysis Reagent) using a FastPrep® homogenizer. The homogenate was then centrifuged at 16,000 RPM for 10 minutes at 4° C. Twenty (20) μL of the supernatant was loaded into a 96-well white plate and luminescence measured following addition of luciferase reagent (Promega Luciferase Assay System). Luciferase activity was determined by comparing luminescence of the homogenized samples to luciferase protein standards. To account for any quenching of luminescence by components in the liver homogenate, luciferase was added to the liver homogenates of untreated animals and the resulting luminescence measured. The resulting quench factor was applied to all samples to obtain the corrected luciferase activity, and normalized per unit mass of tissue analyzed.

[3] = Parent ionizable lipid remaining in liver at 6 h after luciferase mRNA LNP (LC-MS); format: in vivo; conditions: 6 h after IV 0.5 mg/kg Luciferase mRNA LNP
Procedure: Liver tissues were treated with PBS and homogenized with a FastPrep machine, 3 cycles of 5 m/s×15 s. Homogenates from the PBS-treated control animals was pooled and used for standard curve preparation. Samples were extracted into a deep well plate with 250 μL of an internal suitability standard. Plates were centrifuged for 15 min at 4° C. and 2000 rpm. Analysis was performed using an Agilent 6520 QTOF coupled to an Agilent 1290 UHPLC, using reverse-phase LC separation. Quantitation of the ionizable lipid was by MS/MS against a calibration curve spiked into appropriately matched blank matrix. Calibration used a similar class of synthetic lipid as internal standard.
At 6 h post-dose, some treatment groups reported lower levels of novel ionizable lipid in mouse liver compared to the benchmark (Tables 16-18).

[4] = Table 16, female BALB/c mice (n = 4)
[5] = Table 18, female BALB/c mice (n = 4)

SMILES: CCCCCCCCCCCCCOC(=O)CCCCC(CCCCCCCCCC)N(CCN(C)C)C(=O)CCCCC(=O)OCC(CCCC)CCCCCC (stereo not drawn) [Compound 23, tridecyl 6-{6-[(2-butyloctyl)oxy]-N-[2-(dimethylamino)ethyl]-6-oxohexanamido}hexadecanoate]
- Final Product % EE ([1]; Table 3): 97%
- Final Product PDI ([1]; Table 3): 0.06
- Final Product Z-avg ([1]; Table 3): 69 nm
- Luc Activity ([2]; Table 10): 4.44E+06 pg/g liver
- Parent ionizable lipid remaining in liver, Average [3, 4]: 31.85 nmol/g liver

SMILES: CCCCCCCCCCC(CCCCCCCC(=O)OCC(CCCCCC)CCCCCCCC)N(CCCCCCCCC(=O)OCC(CCCCCC)CCCCCCCC)C(=O)CCCCN(C)C (stereo not drawn) [Compound 72, 2-Hexyldecyl 9-(5-(dimethylamino)-N-(9-((2-hexyldecyl)oxy)-9-oxononyl)pentanamido)-nonadecanoate]
- Final Product % EE ([1]; Table 6): 99%
- Final Product PDI ([1]; Table 6): 0.00
- Final Product Z-avg ([1]; Table 6): 79 nm
- Luc Activity ([2]; Table 13): 2.26E+07 pg/g liver
- Parent ionizable lipid remaining in liver, Average ([3]; Table 17, female mice (n = 4)): 47.56 nmol/g liver

SMILES: CCCCCCCCCCN(C(=O)CCCN(C)C)C(CCCCCCCCC)CCCCCCC(F)(F)C(=O)OC(CCCCC)CCCCC (stereo not drawn) [Compound 19, Undecan-6-yl 9-(N-decyl-4-(dimethylamino)butanamido)-2,2-difluorooctadecanoate]
- Final Product % EE ([1]; Table 6): 99%
- Final Product PDI ([1]; Table 6): 0.09
- Final Product Z-avg ([1]; Table 6): 71 nm
- Luc Activity ([2]; Table 13): 1.25E+06 pg/g liver
- Parent ionizable lipid remaining in liver, Average ([3]; Table 17, female mice (n = 4)): 20.22 nmol/g liver

SMILES: CCCCCCCCCCC(CCCCCC(=O)OCC(CCCCCC)CCCCCCCC)N(CCCCCCCCCC)C(=O)CCCCN(C)C (stereo not drawn) [Compound 3, 2-Hexyldecyl 7-(N-decyl-5-(dimethylamino)pentanamido)heptadecanoate]
- Final Product % EE ([1]; Table 3): 99%
- Final Product PDI ([1]; Table 3): 0.05
- Final Product Z-avg ([1]; Table 3): 91 nm
- Luc Activity ([2]; Table 10): 5.94E+07 pg/g liver
- Parent ionizable lipid remaining in liver, Average [3, 4]: 7.72 nmol/g liver

SMILES: CCCCCCCCCCN(C(=O)CCCN(C)C)C(CCCCCCCCC)CCCCCCC(F)(F)C(=O)OCCC(CCCCC)CCCCC (stereo not drawn) [Compound 20, 3-Pentyloctyl 9-(N-decyl-4-(dimethylamino)butanamido)-2,2-difluorooctadecanoate]
- Final Product % EE ([1]; Table 7): 98%
- Final Product PDI ([1]; Table 7): 0.08
- Final Product Z-avg ([1]; Table 7): 72 nm
- Luc Activity ([2]; Table 14): 2.71E+07 pg/g liver
- Parent ionizable lipid remaining in liver, Average [3, 5]: 1.82 nmol/g liver

SMILES: CCCCCCCCCCC(CCCCCCC(F)(F)C(=O)OCCC(CCCCC)CCCCC)N(CCCCCCCC(=O)OCCC(CCCCC)CCCCC)C(=O)CCCN(C)C (stereo not drawn) [Compound 87, 3-pentyloctyl 9-[4-(dimethylamino)-N-{8-oxo-8-[(3-pentyloctyl)oxy]octyl}butanamido]-2,2-difluorononadecanoate]
- Final Product % EE ([1]; Table 7): 98%
- Final Product PDI ([1]; Table 7): 0.05
- Final Product Z-avg ([1]; Table 7): 78 nm
- Luc Activity ([2]; Table 14): 1.18E+06 pg/g liver
- Parent ionizable lipid remaining in liver, Average [3, 5]: 3.23 nmol/g liver

SMILES: CCCCCCCCCCC(CCCCCCC(=O)OCCC(CCCCCC)CCCCCC)N(CCCCCCCC(=O)OCCC(CCCCCC)CCCCCC)C(=O)CCCN(C)C (stereo not drawn) [Compound 69]
- Luc Activity ([2]; Table 13): 4.10E+07 pg/g liver
- Parent ionizable lipid remaining in liver, Average ([3]; Table 17, female mice (n = 4)): 50.57 nmol/g liver

SMILES: CCCCCCCCCCC(CCCCCCC(=O)OCC(CCCCCC)CCCCCCCC)N(CCCN(C)C)C(=O)CCCCCCC(=O)OCCC(CCCCCC)CCCCCC (stereo not drawn) [Compound 84]
- Luc Activity ([2]; Table 13): 6.26E+07 pg/g liver
- Parent ionizable lipid remaining in liver, Average ([3]; Table 17, female mice (n = 4)): 38.96 nmol/g liver

SMILES: CCCCCCCCCCC(CCCCCCC(=O)OCCC(CCCCC)CCCCC)N(CCCCCCCC(=O)OCc1cc(CCCCCC)cc(CCCCCC)c1)C(=O)CCCN(C)C (stereo not drawn) [Compound 66]
- Luc Activity ([2]; Table 14): 2.00E+07 pg/g liver
- Parent ionizable lipid remaining in liver, Average [3, 5]: 34.35 nmol/g liver

SMILES: CCCCCCCCCCC(CCCCCCC(=O)OCC(CCCCCC)CCCCCCCC)N(OCCCCCCCCC)C(=O)CCCN(C)C (stereo not drawn) [Compound 46]
- Luc Activity ([2]; Table 13): 1.08E+08 pg/g liver
- Parent ionizable lipid remaining in liver, Average ([3]; Table 17, female mice (n = 4)): 47.63 nmol/g liver

SMILES: CCCCCCCCCCC(CCCCCCC(=O)OCCC(CCCCCCC)CCCCCCC)N(CCCCCCCC(=O)OCCC(CCCCCCC)CCCCCCC)C(=O)CCCN(C)C (stereo not drawn) [Compound 71]
- Luc Activity ([2]; Table 13): 4.58E+07 pg/g liver
- Parent ionizable lipid remaining in liver, Average ([3]; Table 17, female mice (n = 4)): 27.52 nmol/g liver

SMILES: CCCCCCCCCCC(CCCCCCC(=O)OCCC(CCCCC)CCCCC)N(CCCCCC(F)C(=O)OCCC(CCCCC)CCCCC)C(=O)CCCN(C)C (stereo not drawn) [Compound 86]
- Luc Activity ([2]; Table 14): 1.21E+07 pg/g liver
- Parent ionizable lipid remaining in liver, Average [3, 5]: 12.79 nmol/g liver

SMILES: CCCCCCCCCCC(CCCCCC(=O)OCCCCC(CCCCCCCC)CCCCCCCC)N(CCN(C)C)C(=O)CCCCCCC(=O)OC(CC)CCCCCCCC (stereo not drawn) [Compound 28, 5-Octyltridecyl 7-(N-(2-(dimethylamino)ethyl)-8-oxo-8-(undecan-3-yloxy)octanamido)-heptadecanoate]
- Final Product % EE ([1]; Table 4): 95%
- Final Product PDI ([1]; Table 4): 0.20
- Final Product Z-avg ([1]; Table 4): 90 nm
- Luc Activity ([2]; Table 11): 6.50E+06 pg/g liver

SMILES: CCCCCCCCCCON(C(=O)CCCCN(C)C)C(CCCCCCCCCC)CCCCCCC(=O)OCC(CCCCCC)CCCCCCCC (stereo not drawn) [Compound 45]
- Luc Activity ([2]; Table 13): 8.00E+07 pg/g liver
- Parent ionizable lipid remaining in liver, Average ([3]; Table 17, female mice (n = 4)): 36.39 nmol/g liver

SMILES: CCCCCCCCCCC(CCCCCCC(=O)OCC(CCCCCC)CCCCCCCC)N(CCCN(C)C)C(=O)CCCCCCC(=O)OCCC(CCCCCCC)CCCCCCC (stereo not drawn) [Compound 85]
- Luc Activity ([2]; Table 13): 4.79E+07 pg/g liver
- Parent ionizable lipid remaining in liver, Average ([3]; Table 17, female mice (n = 4)): 37.66 nmol/g liver

SMILES: CCCCCCCCCCC(CCCCCCC(=O)OCC(CCCCCC)CCCCCCCC)N(CCCCCCCCCC)C(=O)CCCN(C)C (stereo not drawn) [Compound 1, 2-Hexyldecyl 8-(N-decyl-4-(dimethylamino)butanamido)-octadecanoate]
- Final Product % EE ([1]; Table 5): 99%
- Final Product PDI ([1]; Table 5): 0.04
- Final Product Z-avg ([1]; Table 5): 77 nm
- Luc Activity ([2]; Table 12): 1.70E+08 pg/g liver

SMILES: CCCCCCCCCCC(CCCCCCC(=O)OCCC(CCCCC)CCCCC)N(CCCCCCCCC(=O)OCCC(CCCCC)CCCCC)C(=O)CCCCN(C)C (stereo not drawn) [Compound 75]
- Luc Activity ([2]; Table 14): 2.58E+07 pg/g liver
- Parent ionizable lipid remaining in liver, Average [3, 5]: 20.44 nmol/g liver

SMILES: CCCCCCCCCCC(CCCCCC(=O)OCC(CCCCCC)CCCCCCCC)N(CCCN(C)C)C(=O)CCCCCCC(=O)OCC(CCCC)CCCCCC (stereo not drawn) [Compound 29, 2-Hexyldecyl 7-(8-((2-butyloctyl)oxy)-N-(3-(dimethylamino)propyl)-8-oxooctanamido)-heptadecanoate]
- Final Product % EE ([1]; Table 5): 98%
- Final Product PDI ([1]; Table 5): 0.02
- Final Product Z-avg ([1]; Table 5): 80 nm
- Luc Activity ([2]; Table 12): 6.74E+07 pg/g liver
